Assay results published in US12162935B2, “Regimens, compositions and methods with capsaicin and TNF-alpha inhibitor” (priority 2018, dated 2024).

Key:
[1] = system: outer hair cells (OHCs); experiment: Outer hair cell damage by SEM and whole mount hair cell count; assay type: in vivo, rat
Excerpt: Immediately after completion of post-treatment ABRs, rats were euthanized and their cochleae were harvested and the specimens processed as described previously by [Kamimura et al.]. Sputter-coated cochlea were viewed and photographed with a Hitachi S-500 scanning electron microscope (Hitachi Ltd.). The resulting scanning electron micrographs were examined to determine qualitative morphological characteristics in various regions including the basal, middle, and apical turns of the rat cochlea.
Two representative areas of the basal turn, middle turn, and apex and hook portion were photographed. In each area, outer hair cells (OHCs) were counted in an area that was 10 pillar cell heads in length. The results are presented as the percentage hair cell damage per cochlear turn. At least three cochleae from different animals per treatment group were used.
To study the organization of the outer hair cells and inner hair cells, the cochlear whole mount technique was used. The cochleae was fixed in fresh 4% paraformaldehyde overnight, and then decalcified in […] EDTA for 2 weeks, (pH 7.3) while stirring at room temperature for 2 weeks. After decalcification, the cochleae was microdissected into basal, middle, and apical turns for whole-mount preparation.
For further processing, segments were washed with 1×PBS twice for 5 mins. For blocking, the segments were incubated in 10% blocking serum (horse serum) for 3 hrs at room temperature. The segments were incubated with primary antibody in 0.2% Triton prepared in PBS and refrigerated overnight. The following day, the segments were washed in PBS (three washes) for 5 mins each wash. The segments were washed in secondary antibody for 2 hrs at room temperature in the dark. The antibodies were then washed with PBS (three washes). Glass coverslips were then mounted on the segments with ProLong Diamond Antifade Mountant (Thermo Fisher Scientific) and incubated them at room temperature overnight and then stored them in 4 degrees. Images were procured using a Leica confocal microscope (Buffalo Grove, IL).
For hair cell count in whole mount preparations, two to three random areas from the basal turn from each treatment group separately were selected. Hair cells were counted in […] segments of the cochlea respectively. Counts were averaged across treatment group. This was further normalized as % of PBS (control) by taking the values of control as 100%.

[2] = system: rat cochlea; experiment: Cochlear gene expression by qPCR after noise exposure; assay type: in vivo
Procedure: Cochleae were pared down to the bone, crushed in liquid nitrogen followed by extraction in 500 μl of TRI reagent. 0.1 ml of chloroform was added, and the tube was shaken vigorously for 15 seconds and centrifuged at 12,000×g for 15 min. RNA was extracted by washing the pellet with 0.5 ml ice-cold isopropanol followed by cold 75% treated ethanol. The ethanol was removed and the tube was air dried briefly. The RNA pellet was resuspended in nuclease free water and RNA levels were determined using optical density readings corresponding to wavelengths of 260 nm, 280 and 320 nm using a spectrophotometer (Eppendorf BioPhotometer, Hamburg, Germany).
500 ng of total RNA was converted to cDNA using iScript cDNA Synthesis Kit (Bio-Rad, Hercules, CA). The reaction mixture was set up as follows: Ing of total RNA, 4 μl of iScript reaction mix, 1 μl of iScript reverse transcriptase, nuclease free water to bring the total volume to 20 μl. The reaction mix was incubated at 25° C. for 5 min, 42° C. for 30 minutes and 85° C. for 5 minutes. This cDNA reaction mix was used for real time PCR, as described previously [Mukherjea et al., 2006]. Gene specific primer pairs were used for the various reactions and mRNA expression levels were normalized to the levels of GAPDH. The primer sets were purchased from Sigma Genosys (St. Louis, MO), and were as follows: […]

[3] = system: CB2 receptor; experiment: Immunoblotting for CB1 and CB2 receptors; assay type: cell-based, mouse; conditions: capsaicin 2.5 μM 24 h
Procedure: FIG. 10.A. UBOC-1 cells were treated with capsaicin (2.5 μM) for 24 h. Total protein was extracted and immunoblotting was performed for CB1 and CB2 receptors. B-actin was used for housekeeping and loading control. Capsaicin increased CB2 receptor staining. FIG. 10.B. Cochleae were harvested from rats treated with either oral PBS or oral capsaicin (20 mg/kg) for 24 h. Total RNA was harvested, converted to c-DNA and probed for CB2 receptor expression by q-PCR. GAPDH was used as housekeeping gene. […] FIG. 10.C. and FIG. 10.D. Cochleae were harvested from rats treated with PBS, fixed in 4% paraformaldehyde in PBS for 8 h. They were then decalcified in EDTA (10 mM), and mid modiolar sections of the cochleae were probed for the cannabinoid receptors subtypes, CB1 (FIG. 10.C.) and CB2 (FIG. 10.D.), while nuclei were stained with DAPI. Fluorescent images were obtained with a Leica confocal microscope. […] Magnification for OHC, spiral ganglion cells and stria vascularis (40×). Similar images were obtained from 3 different animals.
Total cell lysates were prepared using ice-cold lysis buffer containing 50 mM Tris HCl, 10 mM MgCl2 and 1 mM EDTA in the presence of protease inhibitors mixture and phosphatase inhibitor 1 (1:100) (Sigma, St. Louis, MO). The lysates were kept on ice for 5 min followed by centrifugation. The clear supernatant was transferred to a clean tube and discarded the pellet. […]

[4] = system: rat cochlea; experiment: Cochlear gene expression by q-PCR (cisplatin study); assay type: in vivo
[5] = system: Wistar rats; conditions: capsaicin TT 50 μl of 0.1 μM; Mukherjea et al., 2011; cited from earlier work

COc1cc(CNC(=O)CCCC/C=C/C(C)C)ccc1O [capsaicin, 8-methyl-N-vanillyl-trans-6-nonenamide]
stereociliary damage induced by cisplatin ([1]; SEM, oral capsaicin): significantly reduced
loss of outer hair cells ([1]; SEM, trans-tympanic capsaicin pretreatment, cisplatin): no significant loss of outer hair cells
hair cell damage ([1]; whole mount, oral capsaicin alone): minimal hair cell damage
outer hair cell loss compared to control ([1]; whole mount, oral capsaicin prior to cisplatin): no significant outer hair cell loss
Bax gene expression over oral PBS control ([2]; oral Cap+NE): 0.86±0.1 fold
COX2 gene expression over oral PBS control ([2]; oral Cap+NE): 0.84±0.2 fold
NOX3 gene expression over oral PBS control ([2]; oral Cap+NE): 0.5±0.2 fold
TNF-α gene expression over oral PBS control ([2]; oral Cap+NE): 0.9±0.1 fold
TRPV1 gene expression over oral PBS control ([2]; oral Cap+NE): 0.85±0.2 fold
Bax gene expression over oral PBS control ([2]; oral capsaicin alone): 0.69±0.1 fold
COX2 gene expression over oral PBS control ([2]; oral capsaicin alone): 1±0.1 fold
NOX3 gene expression over oral PBS control ([2]; oral capsaicin alone): 0.7±0.2 fold
TNF-α gene expression over oral PBS control ([2]; oral capsaicin alone): 1±0.15 fold
TRPV1 gene expression over oral PBS control ([2]; oral capsaicin alone): 0.9±0.1 fold
CB2 expression [3]: increased CB2 expression
expression of TRPV1, NOX3 and iNOS ([4]; TT-capsaicin 24 h prior to cisplatin): significant reduction
expression of TRPV1, NOX3 and iNOS ([4]; capsaicin alone): did not significantly change
CB2 receptor expression in the rat cochlea ([4]; oral capsaicin): increased the expression of CB2 receptor
Bax/Bcl-2 ratio, rat cochlea ([4]; oral capsaicin prior to cisplatin): significant decrease
Bax/Bcl-2 ratio, rat cochlea ([4]; single agent (cisplatin or oral capsaicin alone)): less than half of that observed following cisplatin alone
duration of transient ABR threshold shift [5]: 24 h
